Assays:
[1] = test system: IL-6; experiment: In vitro measurement of IL-6 in human PBMC; type: cell-based; details: LPS; for inhibition at 10 µM: Conc. 10 μM
Procedure: (§1) In vitro Measurement of Interleukin-6 (IL-6) & Interleukin-1β (IL1β)
(§2) This assay determines the effect of test compounds on the production of IL-6 and IL1β in human PBMC (Physiol. Res. 52: 593-598, 2003). Compounds were tested for their ability to inhibit the activity of IL-6 and IL1β in human PBMC. PBMC were isolated from blood using BD Vacutainer CPT™ Cell preparation tube (BD Bio Science) and suspended in RPMI medium. The test compounds were preincubated with PBMC (0.5 million/incubation well) for 15 minutes at 37° C. and then stimulated with Lipopolysaccharide (Escherichia coli: B4; 1 μg/ml) for 18 hours at 37° C. in 5% CO2. The levels of IL-6 and IL1β in cell culture medium were estimated using enzyme linked Immunosorbent assay performed in a 96 well format as per the procedure of the manufacturer (R&D Systems, Inc. 614 McKinley Place Nebr., Minneapolis, Minn. 55413, USA).

[2] = test system: IL-1β; experiment: In vitro measurement of IL-1β in human PBMC; type: cell-based; details: LPS
Procedure: as §1, §2

[3] = test system: TNF-α; experiment: In vitro measurement of TNF-α in human PBMC; type: cell-based; details: LPS
Procedure: In Vitro Measurement of Tumor Necrosis Factor Alpha (TNF-α)
This assay determines the effect of test compounds on the production of TNF-α in human Peripheral Blood Mononuclear Cells (PBMC). Compounds were tested for their ability to inhibit the activity of TNF-α in human PBMC. PBMC were isolated from blood (from healthy volunteers) using BD Vacutainer CPT™ (Cell preparation tube, BD Bio Science) and suspended in RPMI medium (Physiol. Res. 52; 593-598, 2003). The test compounds were pre-incubated with PBMC (0.5 million/incubation well) for 15 minutes at 37° C. and then stimulated with Lipopolysaccharide (Escherichia coli: B4; 1 μg/ml) for 18 hours at 37° C. in 5% CO2. The levels of TNF-α in the cell culture medium were estimated using enzyme linked Immunosorbent assay performed in a 96 well format as per the procedure of the manufacturer (R&D Systems, Inc. 614 McKinley Place Nebr., Minneapolis, Minn. 55413, USA).

[4] = test system: HCT116; experiment: Anti-cancer screen (MTT), HCT116; type: cell-based; details: Homo sapiens, HCT-116, 48 hours
Procedure: (§3) Experimental drugs are screened for anti-cancer activity in three cell lines for their GI50, TGI and LC50 values (using five concentrations for each compound). The cell lines are maintained in DMEM containing 10% fetal bovine serum. 96 well microtiter plates are inoculated with cells in 100 μL for 24 h at 37° C., 5% CO2, 95% air and 100% relative humidity. 5000 HCT116 cells/well, 5000 NCIH460 cells/well, 10000 U251 cells/well and 5000 MDAMB231 cells/well are plated. A separate plate with these cell lines is also inoculated to determine cell viability before the addition of the compounds (T0).
(§4) Following 24 hours incubation, experimental drugs are added to the 96 well plates. Each plate contains one of the above cell lines and the following in triplicate: five different concentrations (0.01, 0.1, 1, 10 and 100 μM) of four different compounds, appropriate dilutions of a cytotoxic standard and control (untreated) wells. Compounds are dissolved in dimethylsulfoxide (DMSO) to make 20 mM stock solutions on the day of drug addition and frozen at −20° C. Serial dilutions of these 20 mM stock solutions are made in complete growth medium such that 100 μL of these drug solutions in medium, of final concentrations equaling 0.01, 0.1, 1, 10 and 100 μM can be added to the cells in triplicate. Standard drugs whose anti-cancer activity has been well documented and which are regularly used are doxorubicin and SAHA.
(§5) Cells are incubated with compounds for 48 hours followed by the addition of 10 μL 3-(4,5-Dimethyl-2-thiazolyl)-2,5-diphenyl-2H-tetrazolium (MTT) solution per well and a subsequent incubation at 37° C., 5% CO2, 95% air and 100% relative humidity, protected from light. After 4 hours, well contents are aspirated carefully followed by addition of 150 μL DMSO per well. Plates are agitated to ensure solution of the formazan crystals in dimethylsulphoxide and absorbance read at 570 nm.
(§6) Percent growth is calculated for each compound's concentration relative to the control and zero measurement wells (To; viability right before compound addition). If a test well's O.D. value is greater than the To measurement for that cell line % Growth=(test−zero)/(control−zero)×100
(§7) If a test well's O.D. value is lower than the T0 measurement for that cell line, […]

[5] = test system: NCI-H460; experiment: Anti-cancer screen (MTT), NCI-H460; type: cell-based; details: Homo sapiens, NCI-H460; 48 hours, MTT
Procedure: as §3
Following 24 hours incubation, experimental drugs are added to the 96 well plates. […] Compounds are dissolved in dimethylsulfoxide (DMSO) to make 20 mM stock solutions on the day of drug addition and frozen at −20° C. […] Standard drugs whose anti-cancer activity has been well documented and which are regularly used are doxorubicin and SAHA.
as §5, §6, §7

[6] = test system: U251; experiment: Anti-cancer screen (MTT), U251; type: cell-based; details: Homo sapiens, U-251, 48 hours
Procedure: as §3, §4, §5, §6, §7

Row | Structure (SMILES) | GI50 [4] [µM] | GI50 [5] [nM] | GI50 [6] [nM] | also measured
1 | CSc1ccc(-c2nc(O)c(C(=O)Nc3ccc(C)cc3)c(SC)n2)cc1 [Example 1, 4-Hydroxy-N-(4-methylphenyl)-6-(methylthio)-2-[4-(methylthio)phenyl]pyrimidine-5-carboxamide] |  |  |  | melting point: 302 to 305 °C
2 | CSc1ccc(-c2nc(O)c(C(=O)Nc3ccc(C)c(C)c3)c(SC)n2)cc1 [Example 2, 4-Hydroxy-N-(3,4-dimethylphenyl)-6-(methylthio)-2-[4-(methylthio)phenyl]pyrimidine-5-carboxamide] |  |  |  | melting point: 303 to 305 °C
3 | CNc1nc(-c2cccnc2)nc(NC)c1C(=O)Nc1ccc(C)c(C)c1 [Example 7, N-(3,4-Dimethylphenyl)-4,6-bis(methylamino)-2-pyridin-3-ylpyrimidine-5-carboxamide] |  |  |  | inhibition at 10 µM [1]: 53.8%; melting point: 285 to 286 °C; IL-1β Inhibition (%) ([2]; Conc. 10 μM): Not active; inhibition at 0.1 µM [3]: 30.4%
4 | CCc1ccc(NC(=O)c2c(NC)nc(-c3ccc(S(N)(=O)=O)cc3)nc2NC)cc1 [Example 16, 2-[4-(Aminosulfonyl)phenyl]-4,6-bis(methylamino)-N-(4-ethylphenyl)pyrimidine-5-carboxamide] |  |  |  | inhibition at 10 µM ([3]; at 10 μM): 53.1%
5 | CCc1ccc(NC(=O)c2c(NC)nc(-c3ccc(S(N)(=O)=O)cc3)nc2SC)cc1 [Example 17, 2-[4-(Aminosulfonyl)phenyl]-N-(4-ethylphenyl)-4-(methylamino)-6-(methylthio)pyrimidine-5-carboxamide] |  |  |  | inhibition at 0.1 µM [3]: 30.1%
6 | CNc1nc(-c2ccncc2)nc(SC)c1C(=O)Nc1ccc(F)cc1 [Example 18, N-(4-Fluorophenyl)-4-(methylamino)-6-(methylthio)-2-pyridin-4-ylpyrimidine-5-carboxamide] | 1.2 | 2000 |  | 
7 | CNc1nc(-c2ccc(SC)cc2)nc(SC)c1C(=O)Nc1ccc(OC)cc1 [Example 20, 4-(Methylamino)-N-(4-methoxyphenyl)-6-(methylthio)-2-[4-(methylthio)phenyl]pyrimidine-5-carboxamide] |  | 3200 |  | 
8 | CCc1ccc(NC(=O)c2c(NC)nc(-c3ccncc3)nc2SC)cc1 [Example 21, N-(4-Ethylphenyl)-4-(methylamino)-6-(methylthio)-2-pyridin-4-ylpyrimidine-5-carboxamide] | 9.5 | 400 |  | 
9 | CNc1nc(-c2ccncc2)nc(SC)c1C(=O)Nc1ccc(C)cc1 [Example 24, 4-(Methylamino)-N-(4-methylphenyl)-6-(methylthio)-2-pyridin-4-ylpyrimidine-5-carboxamide] | 9.9 | 4000 |  | 
10 | CNc1nc(-c2cccnc2)nc(SC)c1C(=O)Nc1ccc(OC)cc1.O=P(O)(O)O [Example 59, N-(4-Methoxyphenyl)-4-(methylamino)-6-(methylthio)-2-pyridin-3-ylpyrimidine-5-carboxamide orthophosphoric acid salt] |  |  |  | melting point: 222 to 225 °C

The next lines start with results.

Row | GI50 [4] [µM] | GI50 [5] [nM] | GI50 [6] [nM] | Structure (SMILES) | also measured
11 | 4 |  | 3000 | CSc1ccc(-c2nc(NCCO)c(C(=O)Nc3ccc(C)c(C)c3)c(SC)n2)cc1 [Example 32, N-(3,4-Dimethylphenyl)-4-[(2-hydroxyethyl)amino]-6-(methylthio)-2-[4-(methylthio)phenyl]pyrimidine-5-carboxamide] | 
12 | 9 | 900 |  | CNc1nc(-c2ccncc2)nc(SC)c1C(=O)Nc1ccc(C(C)C)cc1 [Example 34, N-(4-Isoproylphenyl)-4-(methylamino)-6-(methylthio)-2-pyridin-4-ylpyrimidine-5-carboxamide] | 
13 |  | 3000 | 1800 | CCCCc1ccc(NC(=O)c2c(NC)nc(-c3ccc(SC)cc3)nc2SC)cc1 [Example 36] | inhibition at 0.1 µM ([1]; Conc. 0.1 μM): 26.6%; IL-1β Inhibition (%) ([2]; Conc. 0.1 μM): Not active
14 |  | 2000 | 90 | CNc1nc(-c2ccc(SC)cc2)nc(SC)c1C(=O)Nc1ccc(C)cc1C [Example 39, N-(2,4-Dimethylphenyl)-4-(methylamino)-6-(methylthio)-2-[4-(methylthio)phenyl]pyrimidine-5-carboxamide] | 
15 | 2 | 500 | 100 | CCOc1ccc(NC(=O)c2c(NC)nc(-c3ccc(SC)cc3)nc2SC)cc1 [Example 40, N-(4-Ethoxyphenyl)-4-(methylamino)-6-(methylthio)-2-[4-(methylthio)phenyl]pyrimidine-5-carboxamide] | inhibition at 10 µM [1]: 61.5%; IL-1β Inhibition (%) ([2]; Conc. 10 μM): Not active
16 | 4 | 3000 | 5000 | CSc1ccc(-c2nc(SC)c(C(=O)Nc3ccc(C)c(C)c3)c(N3CCNCC3)n2)cc1 [Example 42, N-(3,4-Dimethylphenyl)-6-(methylthio)-2-[4-(methylthio)phenyl]-4-piperazin-1-ylpyrimidine-5-carboxamide] | inhibition at 10 µM [1]: 92.2%; IL-1β Inhibition (%) ([2]; Conc. 10 μM): Not active
17 |  | 400 | 700 | CNc1nc(-c2ccc(F)cc2)nc(SC)c1C(=O)Nc1ccc(SC)cc1 [Example 45, 2-(4-Fluorophenyl)-4-(methylamino)-6-(methylthio)-N-[4-(methylthio)phenyl]pyrimidine-5-carboxamide] | 
18 |  | 200 | 200 | CSc1nc(-c2ccncc2)nc(NCCO)c1C(=O)Nc1ccc(Br)cc1 [Example 46, N-(4-Bromophenyl)-4-[(2-hydroxyethyl)amino]-6-(methylthio)-2-pyridin-4-ylpyrimidine-5-carboxamide] | 
19 |  | 100 | 300 | CSc1nc(-c2ccncc2)nc(NCCO)c1C(=O)Nc1ccc(Cl)cc1 [Example 47, N-(4-Chlorophenyl)-4-[(2-hydroxyethyl)amino]-6-(methylthio)-2-pyridin-4-ylpyrimidine-5-carboxamide] | 
20 | 2.5 | 5000 | 3000 | CSc1ccc(-c2nc(NN)c(C(=O)Nc3ccc(C)c(C)c3)c(SC)n2)cc1 [Example 48, N-(3,4-Dimethylphenyl)-4-hydrazino-6-(methylthio)-2-[4-(methylthio)phenyl]pyrimidine-5-carboxamide] | 
21 |  | 7000 | 4000 | CNc1nc(-c2ccc(N(C)C)cc2)nc(SC)c1C(=O)Nc1ccc(OC)cc1 [Example 57, 2-[4-(Dimethylamino)phenyl]-4-(methylamino)-N-(4-methoxyphenyl)-6-(methylthio)pyrimidine-5-carboxamide] | 
